Results taken from ChEMBL document CHEMBL1132249, “Design and synthesis of novel quinoxaline-2,3-dione AMPA/GlyN receptor antagonists: amino acid derivatives” (J Med Chem, 1999).
Values after ≈ are worked out from the molar mass of the structure shown.

How the values were obtained:
[1] = Solubility was measured in 50 mM phosphate buffer at pH 7.4; format: physicochemical
[2] = In vitro binding affinity against glycine receptor binding site using [3H]- Glycine as radioligand on rat cortical synaptosomal membranes
Mus musculus = organism: Mus musculus; experiment: Anticonvulsant activity in mice was determined from maximal electroshock assay; format: functional
[3] = molecular target: Glutamate receptor ionotropic, AMPA (Rattus norvegicus, UniProt P19490+P19491+P19492+P19493); experiment: In vitro binding affinity against Ionotropic glutamate receptor AMPA binding site using [3H]- AMPA as radioligand on rat cortical synaptosomal membranes

Row | Compound | solubility [1] | IC50 [2] | IC50 [3] | ED50 (Mus musculus)
1 | CN1CCc2c([N+](=O)[O-])cc3nc(O)c(O)nc3c2C1 | 8.6 µg/mL (≈ 31.1 µM) | 370 nM | – | 0.44 mg/kg
2 | CCc1c([N+](=O)[O-])cc2nc(O)c(O)nc2c1CN(C)CC(=O)O | 420 µg/mL (≈ 1250 µM) | 470 nM | 140 nM | –
3 | C=Cc1c(Br)cc2nc(O)c(O)nc2c1CN(C)CC(=O)O | 170 µg/mL (≈ 462 µM) | – | 1180 nM | –
4 | CCOC(=O)CN(C)Cc1c(CC)c([N+](=O)[O-])cc2nc(O)c(O)nc12 | 150 µg/mL (≈ 412 µM) | > 10000 nM | 1590 nM | –

More lines, main results first:

Row | solubility [1] | IC50 [2] | IC50 [3] | Compound | ED50 (Mus musculus)
5 | 140 µg/mL (≈ 378 µM) | – | 2320 nM | CCc1c(Br)cc2nc(O)c(O)nc2c1CN(C)CC(=O)O | –
6 | – | > 10000 nM | > 10000 nM | CCc1ccc2nc(O)c(O)nc2c1CN(C)CC(=O)O | –
